Entries after “also recorded” stand apart in the source; their conditions may differ. Marks after values point to notes of the source that are not given here.
Columns and labels:
MCF7 = assay: breast cancer cell viability after 72 h of doxorubicin and RARG agonists co-treatment; assay type: cell-based, human; details: MCF7, doxorubicin LD50 with agonist co-treatment, 10 μM, footnote: 1 μM each, 72 h; Vehicle 0.490
Procedure: (§2) 384-well plate-based cell viability, caspase 3/7 activity, and reactive oxygen species (ROS) assays. […] Luminescence was measured using a VarioSkan Lux Multi-Mode Reader (Thermo Scientific) with an integration time of 0.25 sec. 10 μM staurosporine (MedChemExpress) was used as a positive control. […] 10 μM staurosporine and 50 μM menadione (both MedChemExpress) was used as a positive control, respectively. Data were analyzed using Prism 7.0 software (GraphPad) using standard dose-response guidelines.
Breast cancer cell lines. Four human breast cancer cell lines were used, MCF7 (adenocarcinoma, ATCC HTB-22) and Hs 578T (carcinsarcoma, ATCC HTB-126) both cultured in RPMI 1640 (Corning) with 10% FBS (Opti-Gold, GenDEPOT), MDA-MB-231 (adenocarcinoma, ATCC HTB-26) and MDA-MB-468 (adenocarcinoma, ATCC HTB-131) both cultured in DMEM (Corning) with 10% FBS. All cells were cultured on uncoated tissue culture plates (Greiner) and passaged with TrypLE Express (Gibco).

C57BL/6J Mice = assay: mouse model of doxorubicin-induced cardiomyopathy, echocardiography; assay type: in vivo; details: doxorubicin 3 mg kg^−1 i.p. twice weekly for 3 weeks, agonist 12 mg kg^−1 oral once a day, at three weeks
Excerpt: (§1) Mouse model of doxorubicin-induced cardiomyopathy and drug administration. […] For the control group, we treated mice with corn oil in the same schedule as agonist administration. We recorded an echocardiogram once a week (day 0, day 7, day 14, and day 21) and terminated the experiment at day 21. Hearts were harvested for western blot analyses as mentioned above.
Echocardiographic evaluation. Mice were studied at baseline and weekly during the protocol under light anesthesia with isoflurane (induction 3%, maintenance 1.5%). 2D images in the parastemal short axis were obtained with a GE Vivid 7 ultrasound system (GE Healthcare) equipped with a 13 MHz transducer. Left ventricular end-systolic (LVESD) and end-diastolic (LVEDD) dimensions were measured and left ventricular fractional shortening (FS) was calculated.

[1] = test system: TOP2B, pERK and BCL2 in the hearts of mice; assay: Western blot of mouse hearts at three weeks after treatment; assay type: in vivo; details: doxorubicin plus oral agonist
Procedure: Western blot. We washed and harvested cells in cold PBS and collected them by centrifugation at 20,000 g for 10 min. at 4° C. Pellet was lysed in PBS containing 1% SDS and protease inhibitors (cOmplete, ROCHE) and sonicated (2 pulses of 12 sec at 125 Watt) to shear DNA. We centrifuged the samples at 20,000 g for 15 min. at RT to precipitate and discard the insoluble material and the protein concentration in the supernatant was quantified using BCA assay (Thermo Scientific) following manufacturer's instructions. 20 μg protein/sample were subject to SDS-PAGE in a 9% acrylamide gel for 45 min. at 180 V. and transferred to a PVDF membrane (Immobilon-P, Millipore) at 200 mA. For 90 min. Membranes were blocked in TBST containing 5% milk for 1 h. at RT and incubated at 4° C. overnight with the following primary antibodies: 1:1000 monoclonal rabbit IgG RARG (Abcam, ab187159), 1:1000 polyclonal rabbit IgG TOP2B (Abcam, ab125297), 1:5000 polyclonal rabbit IgG β-Tubulin (Sigma, T2200), 1:5000 monoclonal mouse IgG2a β-Actin (Sigma, A5316). The membrane was washed three times for 10 min with TBST and incubated with the appropriate secondary antibody: 1:5,000 HRP-goat anti-mouse IgG or HRP-goat anti-rabbit IgG (GE NA931V and NA934V) for 1 h. at RT. After three additional washes with TBST, membranes were developed by chemiluminiscence (SuperSignal West Pico, Thermo Scientific). Signals were captured using a CCD camera-based imager (Azure Biosystems) and quantified using Image J software. Mice heart tissues were harvested and homogenized using lysis buffer (80 mM NaCl, 0.05% Triton X, 1 mM EDTA, 20 mM HEPES, 0.5% sodium deoxycholate, 1 mM DTT, 20 mM β-glycerophosphate) with TissueLyser LT (Qiagen) and centrifuged at 10,000 rpm for 15 min at 4° C. Proteins were quantified with Bradford (Bio-Rad) and separated by TrisGlycine SDS/PAGE (Bio-Rad). Transferred proteins on nitrocellulose membrane were probed against TOP2B (R&D Systems), phosphorylated ERK1/2 (Cell Signaling Technologies), BCL2 (Santa Cruz Biotechnology), and GAPDH (Advanced ImmunoChemical).
as §1

ERK1/2 = assay: MSD analysis of phosphorylated ERK in hiPSC-CMs; assay type: cell-based, human; details: Control hiPSC-CMs treated with doxorubicin 24 h, with or without pre/co-treatment
Procedure: MSD analysis of phosphorylated ERK. hiPSC-CMs were collected in lysis buffer (150 mM NaCl, 1% TritonX-100, 50 mM Tris-HCl, pH 8.0) supplemented with Phosphatase Inhibitor II (1:100, Sigma-Adrich), Phosphatase Inhibitor Cocktail 3 (1:100, Sigma-Adrich), 1 mM NaVO4 and protease inhibitors (cOmplete, ROCHE). We centrifuged the samples at 50,000 g for 15 min. at 4° C. to precipitate and discard the insoluble material and the protein concentration in the supernatant was quantified using BCA assay (Thermo Scientific) following manufacturer's instructions. 2.5 μg protein/sample were analyzed using the MSD Phospho(Thr202/yr204; Thr185/Tyr187)/Total ERK1/2 Assay Whole Cell Lysate Kit (Meso Scale Discovery, K15100D-1), according to manufacturer's recommendations. The ratio of phosphorylated ERK was normalized to Total ERK1/2 signal, and analyzed using Prism 7.0 software (GraphPad).

RARG-WT hiPSC-CMs = details: RARG-WT hiPSC-CMs, agonist 1 μM, 72 h doxorubicin
Procedure: as §2

control hiPSC-CMs = details: 1 μM CD1530 and 30 μM U0126, Control hiPSC-CMs, 72 h doxorubicin
Procedure: as §2

Row | SMILES | LD50 (MCF7) | cardiac function (fractional shortening) compared with vehicle treatment (C57BL/6J Mice) | pERK in the murine hearts [1] | pERK (ERK1/2) | BCL2 in the murine hearts [1] | TOP2B in the murine hearts [1] | increase of doxorubicin LD50 (RARG-WT hiPSC-CMs) [fold] | effect of ERK signaling inhibition on the protective effect of CD1530 (control hiPSC-CMs)
1 | CC1=C(/C=C/C(C)=C/C=C/C(C)=C/C(=O)O)C(C)(C)CCC1 [ATRA, 3,7-Dimethyl-9-(2,6,6-trimethyl-1-cyclohexen-1-yl)-2E,4E,6E,8E-nonatetraenoic acid] | 0.355 µM | marginally improved | significantly increased | – | – | – | – | –
2 | O=C(O)c1ccc2cc(-c3ccc(O)c(C45CC6CC(CC(C6)C4)C5)c3)ccc2c1 [CD437, 6-(4-Hydroxy-3-tricyclo[3.3.1.13,7]dec-1-ylphenyl)-2-naphthalenecarboxylic acid] | 0.343 µM | – | – | – | – | – | – | –
3 | O=C(O)c1ccc(-c2ccc3cc(O)c(C45CC6CC(CC(C6)C4)C5)cc3c2)cc1 [CD1530, 4-(6-Hydroxy-7-tricyclo[3.3.1.13,7]dec-1-yl-2-naphthalenyl)benzoic acid] | 0.275** μM | significantly higher | significantly increased | significant increase in pERK; also recorded: significant upregulation of ERK expression | significant upregulation | modest but non-significant downregulation | 4 | –
4 | N#CC(=C(/N)Sc1ccccc1N)/C(C#N)=C(\N)Sc1ccccc1N [U0126] | – | – | – | – | – | – | – | completely abolished the protective effect of CD1530

Source: patent US11135236B2, “Retinoic acid receptor gamma agonists to attenuate anthracycline-induced cardiotoxicity” (Northwestern University, priority 2018, dated 2021)
